Assay results published in patent US20210238257A1, “De Novo Formation of the Biliary System by Hepatocyte Transdifferentiation” (THE REGENTS OF THE UNIVERSITY OF CALIFORNIA, priority 2018, published 2021).

Test system: hepatocytes lacking RBPJ and HNF6
Assay: In vitro conversion assay: 3D culture of hepatocyte spheroids in collagen gels
Assay type: cell-based, mouse
Conditions: 10 μM SB-431542 vs vehicle (DMSO)
Method: Genomic DNA was isolated from cells using QIAamp DNA Micro Kit or DNeasy Blood & Tissue Kit (Qiagen). RNA was extracted using Trizol Reagent (Thermo Fisher Scientific) and purified by isopropanol precipitation (cells in collagen gel) or purified using RNAeasy Mini Kit (Qiagen) (liver tissue). Reverse transcription was performed using qScript cDNA Supermix (Quanta Biosciences). qPCR was performed using SYBR green reagent (Thermo Fisher Scientific) in a ViiA 7 system (Thermo Fisher Scientific). Reactions were performed in triplicate, and expression was normalized to an Rbpj (genotyping) or Gapdh (Glyceraldehyde-3-phosphate Dehydrogenase; gene expression) reference and quantified using the ΔΔCt method.
In vitro 3D culture of hepatocytes to induce biliary conversion was carried out as previously reported^21 with the following modifications. Hepatocytes were isolated from 8-10-week-old Rbpj^f/f;Hnf6^f/f mice injected with 1×10^12 vgs of AAV8-Ttr-Cre 2 weeks prior to delete RBPJ and HNF6. Hepatocytes were isolated by 2-step collagenase perfusion followed by purification through a Percoll gradient, all in the absence of serum. Cells were grown on Primaria plates for 6 days to form spheroids. Spheroids were cultured in collagen gels (Cultrex Rat Collagen I, Lower Viscosity, Trevigen) in the presence of 10 μM SB-431542 (Selleckchem) or vehicle (DMSO). The medium was changed every other day.

## NC(=O)c1ccc(-c2nc(-c3ccc4c(c3)OCO4)c(-c3ccccn3)[nH]2)cc1 [SB-431542]
  biliary differentiation and morphogenesis of hepatocytes: blocks biliary differentiation and morphogenesis
